Measurements from US6693112B2, “Compounds for enhancing chemotherapy” (The Pennsylvania State University, priority 2000, dated 2004).
Values joined by “and” are separate entries in the source; they are usually repeats but may differ in a detail not shown here. Equal values may be shown once. Read-outs that look alike come from different tables or passages of the source.

Tests used:
MCF-7 cells = assay: Cytotoxicity toward drug-sensitive MCF-7 cells (sulforhodamine B binding assay); format: cell-based, human; conditions: for Toxicity: percent of MCF-7 cells killed by 10 μ/ml of the compound
P-gp = P-gp (Homo sapiens, UniProt P08183); conditions: for Pgp Antagonism / P-gp antagonism score: % survival with compound alone / with compound + 50 nM vinblastine; for P-gp antagonism score: >1.0 = chemosensitization; for p-GP/MRP1: ratio of P-gp and MRP1 antagonism scores
Protocol: The percentage of cells that died following treatment was calculated as a percent decrease in sulforhodamine B binding as compared with control cultures. […] Inhibition of P-gp was manifested as the ability of the compound to enhance the cytotoxicity of vinblastine toward NCI/ADR cells. To assess the toxicity of the compounds toward drug-sensitive cells, the effects of the compounds on the growth of drug-sensitive MCF-7 cells were determined using the same methods.
The P-gp antagonism score was calculated by dividing the percent survival of NCI/ADR cells treated with the compound alone by the percent survival of NCI/ADR cells treated with the compound in the presence of 50 nM vinblastine. Chemosensitization is indicated by a score of more than 1.0.
The P-gp antagonism score was calculated by dividing the percent survival of NCI/ADR cells treated with […] by the percent survival of NCI/ADR cells treated with the compound in the presence of 50 nM vinblastine.

MRP = biological target: T1, MRP (Homo sapiens, UniProt P33527); assay: Reversal of MRP-mediated MDR: enhancement of vincristine cytotoxicity toward MCF-7/VP cells; format: cell-based; conditions: % survival with compound alone / with compound + 1 nM vincristine; for MRP1 antagonism score: >1.0 = chemosensitization
T1 construct: MCF-7/VP cells, a cell line that expresses MRP; endogenous in cells; host or cells: MCF-7/VP cells
Protocol: Reversal of MRP-mediated MDR was examined by plating MCF-7/VP cells as described above and exposing the cells to varying concentrations of phenoxymethylquinoxalinone compounds in the absence or presence of 1 nM vincristine for 48 hours. Cell survival was assayed as described above. The percentage of cells that died following treatment was calculated as described above. Inhibition of MRP was manifested as the ability of the compound to enhance the cytotoxicity of vincristine toward MCF-7/VP cells.
Chemosensitization is indicated by a score greater than 1.0.
Chemosensitization is indicated by a score greater than 1.0. […]

[1] = MCF-7 cells, 48 hours, concentration required to kill 50% of the cells, * = maximum dose tested (low solubility)
[2] = MCF-7 cells, concentration required to kill 50% of the cells
[3] = concentration of compound at the maximum antagonism

T1 sequence (P33527 whole entry): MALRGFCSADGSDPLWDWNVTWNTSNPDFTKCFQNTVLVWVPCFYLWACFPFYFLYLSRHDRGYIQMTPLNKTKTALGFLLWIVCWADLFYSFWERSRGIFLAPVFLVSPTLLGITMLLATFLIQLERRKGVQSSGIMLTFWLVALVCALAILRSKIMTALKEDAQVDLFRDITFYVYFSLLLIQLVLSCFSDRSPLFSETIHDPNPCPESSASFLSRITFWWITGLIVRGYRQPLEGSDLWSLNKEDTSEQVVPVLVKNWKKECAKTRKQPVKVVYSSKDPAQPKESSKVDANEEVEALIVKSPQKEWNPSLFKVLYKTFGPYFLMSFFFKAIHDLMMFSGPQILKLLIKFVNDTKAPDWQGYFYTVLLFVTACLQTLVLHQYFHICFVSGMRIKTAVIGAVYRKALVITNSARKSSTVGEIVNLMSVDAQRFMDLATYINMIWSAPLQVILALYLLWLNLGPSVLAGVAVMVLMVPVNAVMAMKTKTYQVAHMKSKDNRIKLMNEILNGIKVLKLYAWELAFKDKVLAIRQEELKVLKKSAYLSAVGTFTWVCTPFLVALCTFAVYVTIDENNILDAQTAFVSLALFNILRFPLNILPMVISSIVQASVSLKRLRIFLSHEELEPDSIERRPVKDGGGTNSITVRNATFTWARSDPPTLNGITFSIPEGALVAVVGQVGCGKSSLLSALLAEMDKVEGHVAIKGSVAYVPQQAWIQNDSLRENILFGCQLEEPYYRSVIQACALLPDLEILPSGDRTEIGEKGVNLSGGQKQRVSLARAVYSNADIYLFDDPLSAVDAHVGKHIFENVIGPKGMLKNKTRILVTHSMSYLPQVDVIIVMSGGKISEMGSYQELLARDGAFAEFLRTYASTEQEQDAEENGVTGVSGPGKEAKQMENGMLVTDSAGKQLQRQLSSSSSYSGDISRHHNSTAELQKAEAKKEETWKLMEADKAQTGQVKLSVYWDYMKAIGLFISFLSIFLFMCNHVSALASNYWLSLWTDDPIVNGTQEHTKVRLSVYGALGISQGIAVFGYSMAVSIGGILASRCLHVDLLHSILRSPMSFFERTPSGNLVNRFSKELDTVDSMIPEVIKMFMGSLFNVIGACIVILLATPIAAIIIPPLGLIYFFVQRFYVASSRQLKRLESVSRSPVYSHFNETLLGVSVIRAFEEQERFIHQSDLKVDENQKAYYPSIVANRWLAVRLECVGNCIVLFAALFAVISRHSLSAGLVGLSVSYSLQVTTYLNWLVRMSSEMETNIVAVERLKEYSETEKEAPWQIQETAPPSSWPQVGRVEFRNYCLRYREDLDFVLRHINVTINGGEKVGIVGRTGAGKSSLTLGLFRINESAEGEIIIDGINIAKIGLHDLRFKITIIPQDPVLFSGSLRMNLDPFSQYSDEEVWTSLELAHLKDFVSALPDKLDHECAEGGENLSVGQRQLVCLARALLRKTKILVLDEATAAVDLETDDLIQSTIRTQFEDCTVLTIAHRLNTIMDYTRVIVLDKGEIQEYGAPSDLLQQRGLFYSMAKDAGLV
Chain of P-gp (P08183 whole entry): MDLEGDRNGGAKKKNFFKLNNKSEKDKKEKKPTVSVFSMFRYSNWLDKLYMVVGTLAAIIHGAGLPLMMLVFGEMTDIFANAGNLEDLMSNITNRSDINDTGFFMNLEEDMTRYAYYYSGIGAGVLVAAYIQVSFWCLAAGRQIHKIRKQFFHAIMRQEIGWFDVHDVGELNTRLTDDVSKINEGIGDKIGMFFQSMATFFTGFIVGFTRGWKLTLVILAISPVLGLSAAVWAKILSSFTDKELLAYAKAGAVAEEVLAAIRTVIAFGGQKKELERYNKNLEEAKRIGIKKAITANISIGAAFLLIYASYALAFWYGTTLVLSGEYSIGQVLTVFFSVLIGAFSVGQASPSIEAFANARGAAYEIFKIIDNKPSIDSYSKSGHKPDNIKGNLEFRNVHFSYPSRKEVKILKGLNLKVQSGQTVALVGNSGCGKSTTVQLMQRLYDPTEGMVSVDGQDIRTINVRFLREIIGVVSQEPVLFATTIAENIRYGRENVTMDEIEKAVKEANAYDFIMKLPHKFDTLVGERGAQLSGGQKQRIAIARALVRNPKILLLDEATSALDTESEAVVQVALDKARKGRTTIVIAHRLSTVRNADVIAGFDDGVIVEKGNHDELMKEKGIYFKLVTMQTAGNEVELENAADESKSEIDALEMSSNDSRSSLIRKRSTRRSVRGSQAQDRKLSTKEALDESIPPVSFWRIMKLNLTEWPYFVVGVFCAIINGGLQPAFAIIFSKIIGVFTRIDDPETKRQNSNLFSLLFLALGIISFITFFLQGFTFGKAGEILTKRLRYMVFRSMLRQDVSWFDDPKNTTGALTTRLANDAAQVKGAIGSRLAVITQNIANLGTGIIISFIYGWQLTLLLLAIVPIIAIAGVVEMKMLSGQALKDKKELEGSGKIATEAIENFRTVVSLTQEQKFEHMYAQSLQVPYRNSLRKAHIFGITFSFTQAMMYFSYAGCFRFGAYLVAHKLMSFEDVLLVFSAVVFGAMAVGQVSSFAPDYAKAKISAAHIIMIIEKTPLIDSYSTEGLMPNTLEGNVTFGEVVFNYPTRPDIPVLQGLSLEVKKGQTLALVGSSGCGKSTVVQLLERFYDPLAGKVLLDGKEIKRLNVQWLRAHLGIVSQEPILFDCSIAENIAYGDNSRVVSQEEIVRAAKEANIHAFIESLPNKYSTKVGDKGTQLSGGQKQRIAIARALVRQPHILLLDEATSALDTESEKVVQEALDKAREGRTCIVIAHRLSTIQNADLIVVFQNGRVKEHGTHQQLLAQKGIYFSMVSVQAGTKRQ

Row | SMILES | Toxicity (MCF-7 cells) | Pgp Antagonism (P-gp; NCI/ADR cells) | MRP Antagonism (MRP) | MRP1 antagonism score (MRP) | further results
1 | CN1CCc2c1nc1ccccc1c2NC(=O)CNCCc1ccc(O)cc1 [Compound 44] | 21% | 1.7 | 1.4 | – | –
2 | Cn1c(=O)c(COc2ccc(C(=O)c3ccccc3)cc2)nc2ccccc21 [Compound 8, 3-(4-Benzoyl-phenoxymethyl)-1-methyl-1H-quinoxalin-2-one] | – | – | – | 0.9 | IC50 (MCF-7 cells; Homo sapiens, MCF7, 48 h): > 67 µM
3 | COc1cc(OCc2nc3ccccc3n(C)c2=O)cc(OC)c1OC [Compound 23] | – | – | – | 0.9 | IC50 (MCF-7 cells; [1]): 21 µM; P-gp antagonism score (P-gp; NCI/ADR cells): 1.2; p-GP/MRP1 (P-gp): 1.3
4 | CCCCN(CCCC)CC(=O)Nc1c2c(nc3ccccc13)N(C)CC2 [Compound 43] | 50% | 4.2 | 1.3 | – | –
5 | CN1CCc2c1nc1ccccc1c2NC(=O)CNC(C)(C)C [Compound 40] | 28% | 3.2 | 1.2 | – | –
6 | Cn1c(=O)c(COc2c(F)c(F)c(F)c(F)c2F)nc2ccccc21 [Compound 4] | – | – | – | 0.8 | IC50 (MCF-7 cells; [1]): > 70 µM; P-gp antagonism score (P-gp; NCI/ADR cells): 2.1; p-GP/MRP1 (P-gp): 2.6
7 | Nc1c2c(nc3ccccc13)N(c1ccccc1)CC2 [Compound 51] | 52% | 2.7 | 1.1 | – | –
8 | CCOC(=O)c1ccc(OCc2nc3ccccc3n(C)c2=O)cc1 [Compound 13, 4-(4-Methyl-3-oxo-3,4-dihydro-quinoxalin-2-ylmethoxy)-benzoyl ethyl ester] | – | – | – | 0.9 | IC50 (MCF-7 cells; [1]): > 74 µM; P-gp antagonism score (P-gp; NCI/ADR cells): 3.8; p-GP/MRP1 (P-gp): 4.2
9 | O=C(Nc1c2c(nc3ccccc13)N(Cc1ccccc1)CC2)c1c(F)cccc1C(F)(F)F [Compound 4009] | – | – | – | – | Toxicity IC50 (MCF-7 cells; [2]): 6 µg/mL; Maximum Antagonism (conc. μg/ml) (P-gp; [3]): 3.1 µg/mL
10 | CN1CCc2c1nc1cc(Br)ccc1c2N [Compound 36] | 99% and 94% | 1.3 | 1.6 | – | –
11 | Cn1c(=O)c(COc2ccc(C#N)cc2)nc2ccccc21 [Compound 3, 3-(4-Cyano-phenoxymethyl)-1-methyl-1H-quinoxalin-2-one] | – | – | – | 0.8 | IC50 (MCF-7 cells; Homo sapiens, MCF7, 48 h): > 43 µM
12 | CN1CCc2c1nc1ccccc1c2NC(=O)CN1CCCCC1 [Compound 42] | 51% | 4.1 | 1.2 | – | –
13 | CN1CCc2c1nc1ccccc1c2N=C(c1ccccc1)N1CCCCC1 [Compound 47] | 58% | 2.4 | 1.0 | – | –
14 | O=C(CN1CCCCC1)Nc1c2c(nc3ccccc13)N(Cc1ccccc1)CC2 [Compound 62] | 0% | 17.8 | 1.1 and 1.09 | – | –
15 | O=C(Nc1c2c(nc3ccccc13)N(Cc1cccc(Cl)c1)CC2)C12CC3CC(CC(C3)C1)C2 [Compound 52] | 33% | 1.2 | 1.2 | – | –
16 | CN1CCc2c1nc1ccccc1c2NC(=O)Cc1ccccc1 [Compound 38] | – | – | 1.0 | – | –
17 | Cn1c(=O)c(COc2ccccc2C(=O)Nc2ccccc2)nc2ccccc21 [Compound 11, 2-(4-Methyl-3-oxo-3,4-dihydroquinoxalin-2-yl-methoxy)-N-phenylbenzamide] | – | – | – | 1.0 | IC50 (MCF-7 cells; Homo sapiens, MCF7, 48 h): > 32 µM
18 | Cn1c(=O)c(COc2cccnc2)nc2ccccc21 [Compound 16] | – | – | – | 1.1 | IC50 (MCF-7 cells; [1]): > 56 µM; P-gp antagonism score (P-gp; NCI/ADR cells): 1.0; p-GP/MRP1 (P-gp): 0.9
19 | CC(C)(C)c1cc(CCC(=O)Nc2c3c(nc4ccccc24)N(Cc2ccccc2)CC3)cc(C(C)(C)C)c1O [Compound 64] | 50% | 13.2 | 1.15 | – | –

Row | SMILES | Toxicity (MCF-7 cells) | Pgp Antagonism (P-gp; NCI/ADR cells) | MRP Antagonism (MRP) | MRP1 antagonism score (MRP) | further results
20 | Cn1c(=O)c(COc2ccccc2Cc2ccccc2)nc2ccccc21 [Compound 15] | – | – | – | 1.1 | IC50 (MCF-7 cells; [1]): 8.1 µM; P-gp antagonism score (P-gp; NCI/ADR cells): 1.0; p-GP/MRP1 (P-gp): 0.9
21 | O=C(Nc1c2c(nc3ccccc13)N(Cc1ccccc1)CC2)c1ccc(F)c(C(F)(F)F)c1 [Compound 4010] | – | – | – | – | Toxicity IC50 (MCF-7 cells; [2]): 9 µg/mL; Maximum Antagonism (conc. μg/ml) (P-gp; [3]): 3.1 µg/mL
22 | COC(=O)c1ccc(OCc2nc3ccccc3n(C)c2=O)c(OC)c1 [Compound 10, 3-Methoxy-4-(4-methyl-3-oxo-3,4-dihydroquinoxalin-2-yl-methoxy)-benzoyl methyl ester] | – | – | – | 1.1 | IC50 (MCF-7 cells; [1]): 71 µM; P-gp antagonism score (P-gp; NCI/ADR cells): 5.6; p-GP/MRP1 (P-gp): 5.2
23 | CCN(CC)CC(=O)Nc1c2c(nc3ccccc13)N(C)CC2 [Compound 41] | 30% | 6.0 | 1.2 | – | –
24 | CCC(=O)Nc1c2c(nc3ccccc13)N(C)CC2 [Compound 37] | – | 1.6 | 1.0 | – | –
25 | COc1ccc(OCc2nc3ccccc3n(C)c2=O)cc1OC [Compound 22] | – | – | – | 0.9 | IC50 (MCF-7 cells; [1]): 28 µM
26 | CN1CCc2c1nc1ccccc1c2NC(=O)CCc1cc(C(C)(C)C)c(O)c(C(C)(C)C)c1 [Compound 46] | 99% | 1.0 | 1.0 | – | –
27 | Nc1c2c(nc3ccccc13)N(Cc1ccccc1)CC2 [Compound 53] | 47% | 3.1 | 1.0 | – | –
28 | CN(C)c1cccc(OCc2nc3ccccc3n(C)c2=O)c1 [Compound 12] | – | – | – | 0.9 | IC50 (MCF-7 cells; [1]): 57 µM; P-gp antagonism score (P-gp; NCI/ADR cells): 1.1; p-GP/MRP1 (P-gp): 1.1
29 | COc1cc(CNc2c3c(nc4ccccc24)N(Cc2ccccc2)CC3)cc(OC)c1 [Compound 4005] | – | – | – | – | Toxicity IC50 (MCF-7 cells; [2]): 20 µg/mL; Maximum Antagonism (conc. μg/ml) (P-gp; [3]): 25 µg/mL
30 | Nc1c2c(nc3ccccc13)N(C1CCCCC1)CC2 [Compound 49] | 97% | 0.8 | 0.6 | – | –
31 | COc1cc(OC)cc(OCc2nc3ccccc3n(C)c2=O)c1 [Compound 21] | – | – | – | 0.9 | IC50 (MCF-7 cells; [1]): 25 µM
32 | CC(C)(C)NCC(=O)Nc1c2c(nc3ccccc13)N(Cc1ccccc1)CC2 [Compound 60] | 29% | – | – | – | –
33 | Nc1c2c(nc3ccccc13)N(Cc1ccccc1)CC2 [Compound 4001] | – | – | – | – | Toxicity IC50 (MCF-7 cells; [2]): 1.7 µg/mL; Antagonism at IC20 or less, P-gp (P-gp): 1.0; Maximum Antagonism (P-gp): 4.0 (3.1); Maximum Antagonism (conc. μg/ml) (P-gp): 4.0 (3.1) μg/ml
34 | Cn1c(=O)c(COc2ccc(-c3ccccc3)cc2)nc2ccccc21 [Compound 17] | – | – | – | 0.7 | IC50 (MCF-7 cells; [1]): 30 µM
35 | Cn1c(=O)c(COc2ccc(F)cc2)nc2ccccc21 [Compound 2] | – | – | – | 0.8 | IC50 (MCF-7 cells; [1]): 26 µM
36 | O=C(CN1CCCCC1)Nc1c2c(nc3ccccc13)N(Cc1ccccc1)CC2 [Compound 4007] | – | – | – | – | Toxicity IC50 (MCF-7 cells; [2]): 6 µg/mL; potency of P-gp antagonism compared with verapamil (P-gp; FIG. 7, NCI/ADR cells, 50 nM vinblastine): somewhat more potent than verapamil; Maximum Antagonism (conc. μg/ml) (P-gp; [3]): 3.1 µg/mL
37 | Cn1c(=O)c(COc2ccccc2)nc2ccccc21 [Compound 1, 1-Methyl-3-phenoxymethyl-1H-quinoxalin-2-one] | – | – | – | 1.0 | IC50 (MCF-7 cells; Homo sapiens, MCF7, 48 h): > 94 µM
38 | Fc1cccc(CNc2c3c(nc4ccccc24)N(Cc2ccccc2)CC3)c1 [Compound 4003] | – | – | – | – | Toxicity IC50 (MCF-7 cells; [2]): >25 µg/mL; Maximum Antagonism (conc. μg/ml) (P-gp; [3]): 25 µg/mL
